The target in one experiment is human orexin-1 receptor (Homo sapiens (Human), UniProt O43613). Description: In vitro intracellular calcium measurements (FLIPR), antagonistic activity on orexin-1 receptor. The conditions noted are these: read-out: IC50 OX1. The experiment is classed as cell-based. Here is the method: (§1) In Vitro Assay: Intracellular Calcium Measurements:
(§2) Chinese hamster ovary (CHO) cells expressing the human orexin-1 receptor and the human orexin-2 receptor, respectively, are grown in culture medium (Ham F-12 with L-Glutamine) containing 300 μg/mL G418, 100 U/mL penicillin, 100 μg/mL streptomycin and 10% heat inactivated fetal calf serum (FCS). The cells are seeded at 20′000 cells/well into 384-well black clear bottom sterile plates (Greiner). The seeded plates are incubated overnight at 37° C. in 5% CO2.
(§3) Within the Fluorescent Imaging Plate Reader (FLIPR Tetra, Molecular Devices), antagonists are added to the plate in a volume of 10 μL/well, incubated for 120 min and finally 10 μL/well of agonist is added. Fluorescence is measured for each well at 1 second intervals, and the height of each fluorescence peak is compared to the height of the fluorescence peak induced by 3 nM orexin-A with vehicle in place of antagonist. […] Optimized conditions were achieved by adjustment of pipetting speed and cell splitting regime. The calculated IC50 values may fluctuate depending on the daily cellular assay performance. Fluctuations of this kind are known to those skilled in the art.
Background: Calcium assays in cells follow changes in intracellular calcium, usually with a dye or a luminescent sensor.

A further experiment deals with human orexin-2 receptor (Homo sapiens (Human), UniProt O43614). Description: In vitro intracellular calcium measurements (FLIPR), antagonistic activity on orexin-2 receptor. The experiment is classed as cell-based. The conditions noted are these: read-out: IC50 OX2. Here is the method:
as §1, §2, §3

Where [1] appears, read: CHO cells expressing human orexin-1 receptor, FLIPR, 3 nM orexin-A agonist, 120 min antagonist incubation, geometric mean if determined several times.
Setting [2] is: CHO cells expressing human orexin-2 receptor, FLIPR, 3 nM orexin-A agonist, 120 min antagonist incubation, geometric mean if determined several times.

Where two headings read alike, the source gives them in different places.

Chain of human orexin-1 receptor (O43613 whole entry): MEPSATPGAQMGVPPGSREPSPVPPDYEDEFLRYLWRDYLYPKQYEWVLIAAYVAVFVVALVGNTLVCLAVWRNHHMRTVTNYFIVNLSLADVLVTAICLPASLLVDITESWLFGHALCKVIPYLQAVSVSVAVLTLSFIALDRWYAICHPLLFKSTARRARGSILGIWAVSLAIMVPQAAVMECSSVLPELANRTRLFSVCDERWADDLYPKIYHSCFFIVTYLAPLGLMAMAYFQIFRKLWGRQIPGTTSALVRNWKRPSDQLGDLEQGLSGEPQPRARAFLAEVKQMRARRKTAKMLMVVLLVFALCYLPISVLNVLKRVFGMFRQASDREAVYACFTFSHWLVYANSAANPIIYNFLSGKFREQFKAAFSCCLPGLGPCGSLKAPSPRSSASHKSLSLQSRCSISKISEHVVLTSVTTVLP
Chain of human orexin-2 receptor (O43614 whole entry): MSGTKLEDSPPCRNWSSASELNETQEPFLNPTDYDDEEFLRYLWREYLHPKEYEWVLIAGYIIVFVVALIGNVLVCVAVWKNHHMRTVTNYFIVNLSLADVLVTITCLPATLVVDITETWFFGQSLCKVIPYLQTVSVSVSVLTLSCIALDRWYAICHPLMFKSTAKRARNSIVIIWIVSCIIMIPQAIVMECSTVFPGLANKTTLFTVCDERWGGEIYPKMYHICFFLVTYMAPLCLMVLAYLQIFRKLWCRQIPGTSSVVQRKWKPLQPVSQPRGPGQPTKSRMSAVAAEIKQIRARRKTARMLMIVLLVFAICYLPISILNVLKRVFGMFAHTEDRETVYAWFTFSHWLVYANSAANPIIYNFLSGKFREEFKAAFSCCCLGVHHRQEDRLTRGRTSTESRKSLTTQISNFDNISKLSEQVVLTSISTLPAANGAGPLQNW

As to `Cc1ccc(-n2nccn2)c(C(=O)N2CCO[C@H](C)[C@H]2Cc2cccc(-n3nccn3)c2)c1` (single isomer, unassigned) [Example 167, [(2R,3R)-2-Methyl-3-(3-[1,2,3]triazol-2-yl-benzyl)-morpholin-4-yl]-(5-methyl-2-[1,2,3]triazol-2-yl-phenyl)-methanone or [(2S,3R)-2-Methyl-3-(3-[1,2,3]triazol-2-yl-benzyl)-morpholin-4-yl]-(5-methyl-2-[1,2,3]triazol-2-yl-phenyl)-methanone], the IC50 at human orexin-1 receptor (setting [1]) stood at 19 nM; at human orexin-2 receptor (setting [2]) it was 2380 nM.

As to `Cc1ccc(-n2nccn2)c(C(=O)N2CCOC[C@H]2Cc2cccc(-n3cccc3)c2)c1` [Example 38, (5-Methyl-2-[1,2,3]triazol-2-yl-phenyl)-[(R)-3-(3-pyrrol-1-yl-benzyl)-morpholin-4-yl]-methanone], the values for the IC50 at human orexin-1 receptor (setting [1]) and on human orexin-2 receptor (setting [2]) were 1 nM and 131 nM, respectively.

Turning to `O=C(c1cc(F)c(F)cc1-n1nccn1)N1CCOC[C@H]1Cc1cc(-n2nccn2)ccc1F` [Example 137, (4,5-Difluoro-2-[1,2,3]triazol-2-yl-phenyl)-[(R)-3-(2-fluoro-5-[1,2,3]triazol-2-yl-benzyl)-morpholin-4-yl]-methanone], the figures for the IC50 on human orexin-1 receptor (setting [1]) and on human orexin-2 receptor (setting [2]) were 30 nM and 202 nM, respectively.

As to `O=C(c1cccc(F)c1-n1nccn1)N1CCOC[C@H]1Cc1cccc(-c2ncon2)c1` [Example 82, (3-Fluoro-2-[1,2,3]triazol-2-yl-phenyl)-[(R)-3-(3-[1,2,4]oxadiazol-3-yl-benzyl)-morpholin-4-yl]-methanone], the IC50 at human orexin-1 receptor (setting [1]) turned out to be 41 nM; at human orexin-2 receptor (setting [2]), 1140 nM.

As for `Cc1cc(C(=O)N2[C@H](Cc3cccc(-n4nccn4)c3)COC[C@@H]2C)c(-n2nccn2)cc1C` [Example 74, (4,5-Dimethyl-2-[1,2,3]triazol-2-yl-phenyl)-[(3S,5R)-3-methyl-5-(3-[1,2,3]triazol-2-yl-benzyl)-morpholin-4-yl]-methanone], the half-inhibitory concentration (IC50) turned out to be 11 nM on human orexin-1 receptor (setting [1]) and 355 nM on human orexin-2 receptor (setting [2]).

Take `COc1ccc(C[C@@H]2COCCN2C(=O)c2c(C)cccc2-n2nccn2)cc1-c1ncon1` [Example 63, [(R)-3-(4-Methoxy-3-[1,2,4]oxadiazol-3-yl-benzyl)-morpholin-4-yl]-(2-methyl-6-[1,2,3]triazol-2-yl-phenyl)-methanone]: the 50% inhibitory concentration (IC50) at human orexin-1 receptor (setting [1]) was 9 nM; on human orexin-2 receptor (setting [2]), 49 nM.

For `Cc1ccc(C(=O)N2[C@H](Cc3cccc(-n4nccn4)c3)COC[C@H]2C)c(-n2nccn2)c1` [Example 69, [(3R,5R)-3-Methyl-5-(3-[1,2,3]triazol-2-yl-benzyl)-morpholin-4-yl]-(4-methyl-2-[1,2,3]triazol-2-yl-phenyl)-methanone], the figures for the IC50 on human orexin-1 receptor and on human orexin-2 receptor were 0.9 nM and 314 nM, respectively.

Take `O=C(c1ccccc1-n1nccn1)N1CCOC[C@H]1Cc1ccc(Cl)c(-c2ncccn2)c1` [Example 194, [(R)-3-(4-Chloro-3-pyrimidin-2-yl-benzyl)-morpholin-4-yl]-(2-[1,2,3]triazol-2-yl-phenyl)-methanone]: the IC50 amounted to 33 nM on human orexin-1 receptor (setting [1]) and 2260 nM on human orexin-2 receptor (setting [2]).

With `O=C(c1ccccc1-n1nccn1)N1CCOC[C@@H]1Cc1cccc(-n2nccn2)c1` [Example 13, [(S)-3-(3-[1,2,3]Triazol-2-yl-benzyl)-morpholin-4-yl]-(2-[1,2,3]triazol-2-yl-phenyl)-methanone], the IC50 came to 966 nM at human orexin-1 receptor (setting [1]) and 4440 nM at human orexin-2 receptor (setting [2]).

Turning to `O=C(c1cc(F)c(F)cc1-n1nccn1)N1CCOC[C@H]1Cc1cccc(-c2ncon2)c1` [Example 80, (4,5-Difluoro-2-[1,2,3]triazol-2-yl-phenyl)-[(R)-3-(3-[1,2,4]oxadiazol-3-yl-benzyl)-morpholin-4-yl]-methanone], the results for the IC50 at human orexin-1 receptor (setting [1]) and at human orexin-2 receptor (setting [2]) were 28 nM and 645 nM, respectively.

As for `O=C(c1ccc(Cl)cc1-n1nccn1)N1CCOC[C@H]1Cc1cccc(-c2ncon2)c1` [Example 86, (4-Chloro-2-[1,2,3]triazol-2-yl-phenyl)-[(R)-3-(3-[1,2,4]oxadiazol-3-yl-benzyl)-morpholin-4-yl]-methanone], the IC50 on human orexin-1 receptor (setting [1]) came out at 42 nM; on human orexin-2 receptor (setting [2]) it was 2650 nM.

As to `Cc1ccc(-n2nccn2)c(C(=O)N2CCOC[C@H]2Cc2cccc(-c3cccs3)c2)c1` [Example 45, (5-Methyl-2-[1,2,3]triazol-2-yl-phenyl)-[(R)-3-(3-thiophen-2-yl-benzyl)-morpholin-4-yl]-methanone], the IC50 at human orexin-1 receptor (setting [1]) came out at 0.1 nM; at human orexin-2 receptor (setting [2]) it was 119 nM.

With `Cc1cccc(C(=O)N2CCO[C@@H](C)[C@H]2Cc2cccc(-n3nccn3)c2)c1-n1nccn1` (single isomer, unassigned) [Example 164, [(2S,3R)-2-Methyl-3-(3-[1,2,3]triazol-2-yl-benzyl)-morpholin-4-yl]-(3-methyl-2-[1,2,3]triazol-2-yl-phenyl)-methanone or [(2R,3R)-2-Methyl-3-(3-[1,2,3]triazol-2-yl-benzyl)-morpholin-4-yl]-(3-methyl-2-[1,2,3]triazol-2-yl-phenyl)-methanone], the IC50 at human orexin-1 receptor (setting [1]) worked out at 29 nM; at human orexin-2 receptor (setting [2]), 4040 nM.

On to `Cc1ccc(-n2nccn2)c(C(=O)N2CCOC[C@H]2Cc2cccc(-c3cnccn3)c2)c1` [Example 41, (5-Methyl-2-[1,2,3]triazol-2-yl-phenyl)-[(R)-3-(3-pyrazin-2-yl-benzyl)-morpholin-4-yl]-methanone], for which the IC50 at human orexin-1 receptor (setting [1]) was 8 nM; on human orexin-2 receptor (setting [2]), 1040 nM.

`Cc1ccc(C(=O)N2C[C@@H](C)OC[C@H]2Cc2cc(-c3ncccn3)ccc2F)c(-n2nccn2)c1C` [Example 151, (3,4-Dimethyl-2-[1,2,3]triazol-2-yl-phenyl)-[(2R,5R)-5-(2-fluoro-5-pyrimidin-2-yl-benzyl)-2-methyl-morpholin-4-yl]-methanone]: the IC50 on human orexin-1 receptor (setting [1]) was 8 nM; at human orexin-2 receptor (setting [2]) it was 818 nM.

Regarding `O=C(c1cc(F)ccc1-n1nccn1)N1CCOC[C@H]1Cc1cccc(-c2ncon2)c1` [Example 88, (5-Fluoro-2-[1,2,3]triazol-2-yl-phenyl)-[(R)-3-(3-[1,2,4]oxadiazol-3-yl-benzyl)-morpholin-4-yl]-methanone], the IC50 worked out at 30 nM on human orexin-1 receptor (setting [1]) and 893 nM at human orexin-2 receptor (setting [2]).

Turning to `COc1ccc(C[C@@H]2COCCN2C(=O)c2ccccc2-n2nccn2)cc1-c1cccs1` [Example 10, [(R)-3-(4-Methoxy-3-thiophen-2-yl-benzyl)-morpholin-4-yl]-(2-[1,2,3]triazol-2-yl-phenyl)-methanone], the IC50 on human orexin-1 receptor (setting [1]) was 0.5 nM; on human orexin-2 receptor (setting [2]), 31 nM.

On to `O=C(c1c(F)cccc1-n1nccn1)N1CCOC[C@H]1Cc1cc(-n2nccn2)ccc1F` [Example 136, [(R)-3-(2-Fluoro-5-[1,2,3]triazol-2-yl-benzyl)-morpholin-4-yl]-(2-fluoro-6-[1,2,3]triazol-2-yl-phenyl)-methanone], for which the IC50 is 37 nM on human orexin-1 receptor (setting [1]) and 574 nM on human orexin-2 receptor (setting [2]).

On to `C[C@@H]1CN(C(=O)c2ccccc2-n2nccn2)[C@H](Cc2cc(-c3ncccn3)ccc2F)CO1` [Example 148, [(2R,5R)-5-(2-Fluoro-5-pyrimidin-2-yl-benzyl)-2-methyl-morpholin-4-yl]-(2-[1,2,3]triazol-2-yl-phenyl)-methanone], for which the IC50 came to 39 nM at human orexin-1 receptor (setting [1]) and 1940 nM on human orexin-2 receptor (setting [2]).

Take `O=C(c1ccccc1-n1nccn1)N1CCOC[C@H]1Cc1ccc(O)c(-c2ncccn2)c1` [Example 55, [(R)-3-(4-Hydroxy-3-pyrimidin-2-yl-benzyl)-morpholin-4-yl]-(2-[1,2,3]triazol-2-yl-phenyl)-methanone]: the figures for the IC50 at human orexin-1 receptor (setting [1]) and on human orexin-2 receptor (setting [2]) were 27 nM and 2010 nM, respectively.

For the molecule `Cc1cccc(C(=O)N2[C@H](Cc3cccc(-n4nccn4)c3)COC[C@H]2C)c1-n1nccn1` [Example 70, [(3R,5R)-3-Methyl-5-(3-[1,2,3]triazol-2-yl-benzyl)-morpholin-4-yl]-(3-methyl-2-[1,2,3]triazol-2-yl-phenyl)-methanone], the IC50 came to 5 nM on human orexin-1 receptor (setting [1]) and 2610 nM at human orexin-2 receptor (setting [2]).

For `Cc1cc(C(=O)N2CCOC[C@H]2Cc2cc(-n3nccn3)ccc2F)c(-n2nccn2)cc1C` [Example 128, (4,5-Dimethyl-2-[1,2,3]triazol-2-yl-phenyl)-[(R)-3-(2-fluoro-5-[1,2,3]triazol-2-yl-benzyl)-morpholin-4-yl]-methanone], the values for the IC50 at human orexin-1 receptor (setting [1]) and at human orexin-2 receptor (setting [2]) were 0.7 nM and 30 nM, respectively.

For `Cc1ccc(-n2nccn2)c(C(=O)N2C[C@@H](C)OC[C@H]2Cc2cc(-n3ccnn3)ccc2F)c1` [Example 140, [(2R,5R)-5-(2-Fluoro-5-[1,2,3]triazol-1-yl-benzyl)-2-methyl-morpholin-4-yl]-(5-methyl-2-[1,2,3]triazol-2-yl-phenyl)-methanone], the IC50 on human orexin-1 receptor (setting [1]) is 27 nM; at human orexin-2 receptor (setting [2]) it was 1110 nM.

As for `Cc1cccc(C(=O)N2[C@H](Cc3cccc(-n4nccn4)c3)COC[C@@H]2C)c1-n1nccn1` [Example 72, [(3S,5R)-3-Methyl-5-(3-[1,2,3]triazol-2-yl-benzyl)-morpholin-4-yl]-(3-methyl-2-[1,2,3]triazol-2-yl-phenyl)-methanone], the figures for the IC50 at human orexin-1 receptor (setting [1]) and at human orexin-2 receptor (setting [2]) were 8 nM and 2460 nM, respectively.

What is called IC50 is the concentration at which inhibition is half-maximal.

Source of the values: patent publication US9150566B2, “2-(1,2,3-triazol-2-yl)benzamide and 3-(1,2,3-triazol-2-YL)picolinamide derivatives as orexin receptor antagonists” (ACTELION PHARMACEUTICALS LTD., priority 2011, dated 2015).
